Assay results as given in patent publication US5859032A, “Pyridine derivative, anti-ulcer drug, and antibacterial drug” (priority 1996, dated 1999).

How the values were obtained:
[1] = test system: isolated gastric fundic gland; assay: CAP: Acid Secretion Inhibition Test In Vitro ([14C]-aminopyrine uptake test); assay type: cell-based, Japanese White rabbit; conditions: Oryctolagus cuniculus, 40 min, 10^-5 M, histamine 10^-5 M, 37° C., read-out: CAP: acid secretion inhibitory rate
Experimental: CAP: Acid Secretion Inhibition Test In Vitro
The acid secretion inhibitory activity in a cell level is studied. It can also be used for studying the mechanism of the effect. […]
ii-a) Preparation of isolated gastric fundus gland suspension
First, an isolated gastric fundic gland sample was prepared. Namely, a male Japanese White rabbit (2.5 to 3 kg) was anesthetized to death with Nembutal™ and then the abdomen was incised. Immediately thereafter, the stomach was removed and, after its pyloric and cardiac antrum were severed, incised along its greater curvature into two sheets. The gastric contents adhering to the mucosal surface was washed out with ice-cooled PBS (-) and then carefully washed therein. The gastric wall was spread on a cork board with its mucosal surface facing up and the feed and mucus thereon were completely removed with sterile gauze. The mucosa was separated therefrom by a spatula and then collected in ice-cooled PBS (-). After being washed twice with PBS (-), the mucosa was minced into 2-3 mm^3 pieces by scissors. These pieces were further washed twice with a nutrient solution. The nutrient solution comprises 132.4 mM of NaCl, 5.4 mM of KCl, 5 mM of Na2 HPO4. 12H2 O, 1 mM of NaH2 PO4. 2H2 O, 1.2 mM of MgSO4, 1 mM of CaCl 2, 25 mM of HEPES, 2 mg/ml of glucose, and 1 mg/ml of BSA. Into 70 ml of the nutrient solution containing 1 mg/ml of collagenase, minced mucosal pieces were dispersed and intensely stirred in a conical flask with a stirrer at 37° C. for 40 to 60 minutes. During this period, 100% O2 was sprayed on the nutrient solution surface and the pH was appropriately measured such that it was immediately adjusted to pH 7.4, when the value was therebelow, with a base. The nutrient solution was added to the reaction solution so as to attain the total amount of about 200 ml. After being filtered through a mesh, the suspension was divisionally introduced into 50 ml centrifuge tubes and left for 15 minutes such that gastric fundic gland was deposited. The supernatant was repeatedly removed by an aspirator, dispersed in the nutrient solution, and then left such that the gastric fundic gland was washed three times. At this time, without using a pipette, the suspension was alternately introduced into two centrifuge tubes so as to effect dispersion. The number of cells was counted under microscope and adjusted to 1.6×10^6 cells/ml. […]
ii-b) [^14 C]-aminopyrine uptake test
Then, [^14 C]-aminopyrine uptake test was performed. After an Eppendorf tube was weighed, 10 μl (final concentration: 10^-5 M) of histamine dissolved in the above-mentioned nutrient solution, 10 μl (final concentration: 10^-5 M) of the test compound dissolved in DMSO, and 10 μl (final concentration: 0.05 μCi/ml) of [^14 C]-aminopyrine diluted with the nutrient solution were introduced therein and then 970 μl of the isolated gastric fundic gland suspension prepared above was added thereto. Subsequently, this mixture was shaken at 37° C. for 40 minutes at 125 cycles/minute. After being centrifuged for 30 minutes, 200 μl of its supernatant was collected into a mini-vial, while the rest was removed by an aspirator. The gland pellet was completely dried as the tube with its lid being opened was kept for one night in a drying oven at 80° C. and then the lid was closed and the weight was determined at room temperature. Then 100 μl of 1N KOH was added thereto and the tube with its lid being closed was treated at 60° C. for 1 to 2 hours so as to dissolve the pellet. Then, the contents thereof were transferred to a mini-vial. Into the mini-vial containing the supernatant or gland pellet, 4 ml of Atomlite™ was added and then the radioactivity was measured by a liquid scintillation counter. Here, after the radioactivity of the gland pellet was corrected by using a sample in which 20 mM of NaSCN was added so as to cancel the hydrogen ion concentration gradient, the integration ratio of aminopyrine specifically trapped by the gland pellet was calculated. […]

[2] = test system: stress ulcer formation (rats); assay: WIS: Restraint and Water Immersion Stress-Induced Ulcer Inhibition Test; assay type: in vivo, rat (male Crj:SD or Slc:SD); conditions: rat, 100 mg/kg, oral, 7 hours water immersion stress
Experimental: WIS: Restraint and Water Immersion Stress-Induced Ulcer Inhibition Test
The degree of inhibition of the stress ulcer formation is tested.
Male Crj:SD or Slc:SD rats (6 to 7-week-old) were fasted overnight, but allowed free access to water. Each group has 5 to 8 of these rats. […] To a control group, the vehicle was administered. 10 minutes later, the rats were placed in a stress cage and immersed to the level of xipfoid process in a water bath (21° C.) for 7 hours. At the end of the stress, the rats were sacrificed by inhalation of ether or carbon dioxide. Then, the stomach of each was removed, inflated by injecting 10 ml of 5% formalin neutral buffer solution, and immersed in 1% formalin neutral buffer solution for 30 minutes or more to be fixed. The stomach was incised along the greater curvature and then the length of each erosion in the glandular portion was determined under dissecting microscope. The sum of the length of erosions per stomach was defined as ulcer index (UI).
The effect obtained when 100 mg/kg of the sample compound had been administered was expressed as ulcer formation inhibitory rate (%) as follows:
ulcer formation inhibitory rate (%)=(1-(UI in sample group/UI in control

[3] = test system: gastric acid secretion (pylorus-ligated, histamine-stimulated rats); assay: VOL, TAO: Acid Secretion Inhibition Test In Vivo; design: species or system rat (male Crj:Donryu); conditions: rat, 100 mg/kg, oral; histamine 30 mg/kg s.c.
Experimental: VOL, TAO: Acid Secretion Inhibition Test In Vivo
Inhibitory effect on acid secretion in vivo is confirmed.
Male Crj:Donryu rats (7-week-old) were fasted overnight but allowed free access to water. In each group, 8 to 10 of these rats were used under urethane anesthesia (1.25 g/kg). […] 30 minutes later, the abdomen of each was incised and the pylorus was ligated. 30 minutes after the ligation, 30 mg/kg of histamine dissolved in physiological saline was subcutaneously administered and, 3 hours thereafter, the rat was sacrificed with carbon dioxide. Immediately thereafter, each stomach was removed and the gastric contents were collected and each volume was determined. The total acid output was determined by titration of the gastric juice with 0.1N NaOH.
With respect to the gastric juice volume (VOL) and the total acid output (TAO), the effects obtained when 100 mg/kg of the sample compound had been administered were expressed as their respective inhibitory rates (%) as follows:
each inhibitory rate (%)=(1-(value in sample group/value in control

| Compound | inhibition at 10 µM [1] | WIS: ulcer formation inhibitory rate [2] | TAO: total acid output inhibitory rate [3] | VOL: gastric juice volume inhibitory rate [3] |
| --- | --- | --- | --- | --- |
| CC(C)=CCC/C(C)=C/COc1ccc(C(=O)NCCc2ccccn2)cc1 [Example 1, 2-[2-(4-geranyloxybenzoylamino)ethyl]pyridine] | 97% | 50% | 8% | 4% |
| CC(C)=CCC/C(C)=C/COc1ccc(C(=O)NCCc2ccncc2)cc1 [Example 2, 4-[2-(4-geranyloxybenzoylamino)ethyl]pyridine] | 99% | 77% | 25% | 17% |
| CC(C)=CCC/C(C)=C/COc1ccc(C(=O)NCc2ccncc2)cc1 [Example 3, 4-(4-geranyloxybenzoylaminomethyl)pyridine] | 99% | 61% |  |  |
| CC(C)=CCC/C(C)=C/COc1ccc(C(=O)Nc2cccnc2)cc1 [Example 4, 3-(4-geranyloxybenzoylamino)pyridine] | 44% | 39% |  |  |
| CC(C)=CCOc1ccc(OCC=C(C)C)c(C(=O)NCCc2ccncc2)c1 [Example 6, 4-[2-(2,5-diprenyloxybenzoylamino)ethyl]pyridine] | 100% | 48% |  |  |
| CC(C)=CCC/C(C)=C/COc1ccc(C(=O)NCCNc2cccnc2)cc1 [Example 7, 3-[2-(4-geranyloxybenzoylamino)ethylamino]pyridine] | 100% | 81% |  |  |
| COc1ccc(NCCNC(=O)c2ccc(OC/C=C(\C)CCC=C(C)C)cc2)nc1 [Example 8, 2-[2-(4-geranyloxybenzoylamino)ethylamino]-5-methoxypyridine] | 97% | 55% | -7% | 7% |
| CC(C)=CCC/C(C)=C/COc1ccc(C(=O)NCCNc2cc(C)cc(C)n2)cc1 [Example 10, 2,4-dimethyl-6-[2-(4-geranyloxybenzoylamino)ethylamino]pyridine] | 101% | 55% |  |  |
| COc1ccc(SCCNC(=O)c2ccc(OC/C=C(\C)CCC=C(C)C)cc2)nc1 [Example 11, 2-[2-(4-geranyloxybenzoylamino)ethylthio]-5-methoxypyridine] | 55% | 61% |  |  |
| CC(C)=CCC/C(C)=C/COc1ccc(C(=O)NCC(=O)Nc2ccccn2)cc1 [Example 13, 2-[2-(4-geranyloxybenzoylamino)acetylamino]pyridine] | 31% | 33% |  |  |
